Results on 8 molecules are retold here after patent US11891642B2, “Biocatalytic techniques” (HYPHA DISCOVERY LIMITED, priority 2018, dated 2024).

Series [1] deals with native codon optimised P450SriC12. Description: Cell-free hydroxylase/dealkylase assay, lyophilised extract incubated with bosentan, UPLC-MS. Type of series: biochemical, Streptomyces rimosus NRRL-2234. Particulars: 0.1 mg/ml bosentan, 27° C., 16-20 hours. The protocol: (§1) Lyophilised material of recombinant P450, ferredoxin and ferredoxin reductase proteins was made as described in Example 3 and reconstituted in high purity water to 90% the original volume. Biocatalysis was performed at 27° C. in the following conditions: 50 mM potassium phosphate pH 7.4, 5 mM MgCl2, 0.1 mg/ml substrate compound such as bosentan, cyclosporine A, diclofenac, ritonavir, tivantinib, valsartan or vanoxerine, native concentration of P450, ferredoxin and ferredoxin reductase as extracted (Example 3). Reactions were initiated by addition of 10× stock of cofactor mixture (50 mM G6P, 10 mM NADP, 10 UN/ml G6PDH) to provide a final volume of e.g., 100 μL. After 16-20 hours, reactions were extracted with an equal volume of acetonitrile, centrifuged to remove precipitated proteins and conversion assessed by UPLC-MS analysis.
(§2) Acidic Analysis Conditions • Column: Acquity UPLC BEH Shield RP18 1.7 μm 2.1 mm i.d. 50 mm length • Column temperature: 45° C. • Solvents: H2O, B: Acetonitrile, both with 0.1% Formic acid • Flow rate: 1.0 ml/min • Gradient (A9%/B %): t=0 mins: 98/2 to 2/98 at t=2.4 mins and held for a further 0.4 mins (2.8 mins total), return to 98/2 over 0.05 mins and re-equilibrated for 0.15 mins (t=3 mins) at a flow-rate of 1.0 mL/min.
(§3) Basic Analysis Conditions • Column: Waters Acquity UPLC BEH C18 1.7 μm 2.1 mm i.d. 50 mm length • Column temperature: 45° C. • Solvents: A: 10 mM ammonium bicarbonate in H2O, B: Acetonitrile • Gradient (A %/B %): t=0 mins: 98/2 to 2/98 at t=2.4 mins and held for a further 0.4 mins (2.8 mins total), return to 98/2 over 0.05 mins and re-equilibrated for 0.15 mins (t=3 mins) at a flow-rate of 1.0 mL/min. • Detector: Waters Acquity UPLC PDA (UV-Vis detection) and Waters Acquity UPLC QDA (MS)
(§4) The resulting plasmids containing the new mutants genes were transformed into recombinant E. coli strains for expression as described in Example 1, cultured and induced as described in Example 2, extracted and processed as described in Example 3 and tested for biocatalytic activity as described in Example 5 above.

In series [2] the test system is R63W mutant of codon optimised P450SriC12. The description is as above. Type of series: biochemical, Streptomyces rimosus NRRL-2234. Particulars: 0.1 mg/ml bosentan, 27° C., 16-20 hours. As for the experimental part:
as §1, §2, §3, §4

The subject of series [3] is S. lividans HD000 negative control. Description: Whole-cell biotransformation of ritonavir in 24-well block format, empty-vector strain. Type of series: cell-based, Streptomyces lividans. Particulars: for +16 Da (1.67 min) / +16 Da (1.72 min) / +16 Da (1.76 min) / Parent (1.90 min): ritonavir 100 mg/L. The protocol:
As a negative control, an empty plJ12551 expression vector was introduced into S. lividans TK24 by triparental conjugation as described above and designated as S. lividans […].
(§5) Approximately 10^8 cells of S. lividans HD000 and S. lividans […] inoculated separately into 50 mL of culture medium (containing 5 g/L glycerol; 20 g/L glucose; 5 g/L yeast extract peptone; 2 g/L meat extract; 5 g/L mycological peptone; 1 g/L ammonium phosphate dibasic; 3 g/I sodium chloride; 0.3 g/L magnesium sulphate heptahydrate and 3.5 g/L calcium carbonate, adjusted to pH 7.0 and sterilised at 115° C. for 15 minutes) in 250 mL baffled flasks and incubated shaking at 27° C., 200 rpm for 48 hours. In a 24-well micro-bioreactor block (EnzyScreen, Netherlands), 2.5 mL of S. lividans HD000 and S. lividans HD002 were dosed with ritonavir at a concentration of 100 mg/L. Ritonavir was formulated with 20% hydroxypropyl-p-cyclodextrin (prepared via 1 in 25 dilution of a stock solution of 25 mg ritonavir in 1 mL DMSO). Cultures were time-coursed daily after dosing to assess the production of the target metabolite hydroxy-ritonavir as in Example 5.
(§6) Conversions of ritonavir improved with longer incubations with the drug.

For series [4], the system named is P450SriC12-ferredoxinSriF05-ferredoxin reductaseSCF15A expressed in S. lividans HD002. Description: Whole-cell biotransformation of ritonavir in 24-well block format. Type of series: cell-based, Streptomyces rimosus NRRL-2234. Particulars: for +16 Da (1.67 min) / +16 Da (1.72 min) / +16 Da (1.76 min) / Parent (1.90 min): ritonavir 100 mg/L. The protocol: as §5, §6

Series [5] can be described thus: Concentration of cytochrome P450 in cell-free extract by carbon monoxide difference spectrum (Omura and Sato). Particulars: mutant P450SriC12 expressed in E. coli BL21 (DE3). The protocol:
Measurement is performed according to the method of Omura and Sato et al. (J Biol Chem, 239. 1964, 2370). That is to say, cytochrome P450 is analyzed quantitatively using the following formula, based on the difference in the absorbance of the reduced CO versus the reduced difference spectrum at 450 nm and 490 nm.
Measurement of the concentration of cytochrome P450 were performed according to the method of Omura and Sato et al. (J Biol Chem, 239. 1964, 2370). Cytochrome P450 concentrations of cell-free extracts of induced E. coli BL21 (DE3) Rosetta2 & Tuner cells harbouring either pHD05-SriC01, pHD02-SriC12-SriF05, pHD05-SriC14-SriF06, pHD05-SriC20, pHD05-SriC22 or pHD05-SriC51-SriF08 are shown in Table 2. Carbon monoxide difference spectra for P450SriC01, P450SriC12, P450SriC14, P450SriC20, P450SriC22 and P450SriC51 are shown in FIGS. 9, 10, 11, 19, 20 & 21 respectively.
The native and codon optimised P450sriC12 and ferredoxinsriF05 in pHD02-SriC12-SriF05 and pHD02-SriC12CO-SriF05CO respectively were introduced into E. coli BL21 (DE3). The recombinant strains were cultured and proteins were induced as in Example 2. The cell-free extract material was obtained as in Example 3 and carbon monoxide difference spectrums were measure to calculate the concentration of cytochrome P450.
The resulting plasmids containing the new mutants genes were transformed into recombinant E. coli strains for expression as described in Example 1, cultured and induced as described in Example 2, extracted and processed as described in Example 3 and tested for biocatalytic activity as described in Example 5 above. The carbon monoxide difference spectrum result of R63W mutant of codon optimised P450SriC12 is shown in FIG. 14 and the cytochrome P450 concentration of mutant P450SriC12 are shown in Table 5.

Residue numbers refer to the chain shown, from its start. Names and notes keep the numbering of the source.

Consider `COc1ccccc1Oc1c(NS(=O)(=O)c2ccc(C(C)(C)C)cc2)nc(-c2ncccn2)nc1OCCO` [bosentan], for which the “yield of the O-demethyl-bosentan product” value in series [1] was 3.3%; in series [2], 63.2%. Besides, the hydroxy-bosentan product result in series [2] was “no hydroxy-bosentan product was detected”.
Regarding `CC(C)c1nc(CN(C)C(=O)N[C@H](C(=O)N[C@@H](Cc2ccccc2)C[C@H](O)[C@H](Cc2ccccc2)NC(=O)OCc2cncs2)C(C)C)cs1` [ritonavir], the “+16 Da (1.67 min)” value in series [3] (sampling 24 hour) is on record as 0.0%; in series [3] (sampling 48 hour), 0.0%; in series [3] (sampling 120 hour), 0.0%; in series [4] (sampling 24 hour), 7.1%; in series [4] (sampling 48 hour) it was 8.6%; in series [4] (sampling 120 hour), 9.1%. The “+16 Da (1.72 min)” value is on record as 0.0% in series [3] (sampling 24 hour); 0.0% in series [3] (sampling 48 hour); 0.0% in series [3] (sampling 120 hour); 18.9% in series [4] (sampling 24 hour); 23.6% in series [4] (sampling 48 hour); 28.1% in series [4] (sampling 120 hour). In addition, the “+16 Da (1.76 min)” value came out at 0.0% in series [3] (sampling 24 hour); 0.0% in series [3] (sampling 48 hour); 0.0% in series [3] (sampling 120 hour); 1.4% in series [4] (sampling 24 hour); 2.8% in series [4] (sampling 48 hour); 1.4% in series [4] (sampling 120 hour). The “Parent (1.90 min)” value in series [3] (sampling 24 hour) was 100.0%; in series [3] (sampling 48 hour), 100.0%; in series [3] (sampling 120 hour), 100.0%; in series [4] (sampling 24 hour) it was 68.5%; in series [4] (sampling 48 hour), 58.6%; in series [4] (sampling 120 hour) it was 51.2%. In addition, the results for the “hydroxylation of ritonavir (in words)” value in series [3] (whole cells) and in series [4] (whole-cell biotransformation) were “unable to hydroxylate ritonavir” and “able to hydroxylate ritonavir”, respectively.

B1: Mutant 17 R63W R74Y: R63W R74Y mutant of codon optimised cytochrome SriC12, SEQ ID NO: 251 (protein)
chain: MTEALPFPQDRTCPYDPPAGYQPLRDSRPLSRVTLYDGRPAWVVTGHAESRALLTDPRLSADWQNPAFPSPAPYFETLRKVRTPLLGVDDPEHNTQRRMLIPSFSVKRAAALRPRIQEIVDRLLDAMEQQGPPAELVSAFALPVPSMVICALLGVPYADHELFEGLSRTLLQSADPQEVTEARDKLEDYFTALVERKRKEPGDGLLDELIAERLDSGELGHRELVRMAMLLLVAGHETTSNMLSLGTFTLLEHPEQFAALRADPSLLPAAVEELLRFLSIADGMVRVATEDIEIGGVTIRADDGVIFSTSVVNRDGAAYASPDTLDWERSARHHVAFGFGVHQCLGQNLARAEMEIAFGALFARFPGLRLAVPAAEIPVKPAHALQGLVELPVTW
modifications: R63W R74Y mutant of SriC12
B1: the P450 concentration in series [5] came to 27.6 µM.

B2: Mutant 2 R63Y: R63Y mutant of codon optimised cytochrome SriC12, SEQ ID NO: 233 (protein)
chain: B1 chain with W63Y, Y74R
modifications: R63Y mutant of SriC12
Take B2: the P450 concentration in series [5] stood at 6.2 µM.

B3: Mutant 18 R63W L171A: R63W L171A mutant of codon optimised cytochrome SriC12, SEQ ID NO: 253 (protein)
chain: B1 chain with Y74R, L171A
modifications: R63W L171A mutant of SriC12
In turn, B3 had a P450 concentration in series [5] of 22.4 µM.

B4: Mutant 1 R63W: R63W mutant of codon optimised cytochrome SriC12, SEQ ID NO: 231 (protein)
chain: B1 chain with Y74R
modifications: R63W mutant of SriC12
For B4, in series [5], the P450 concentration was found to be 17.6 µM.

B5: Mutant 20 R74Y L171A R183W: R74Y L171A R183W mutant of codon optimised cytochrome SriC12, SEQ ID NO: 255 (protein)
chain: B1 chain with W63R, L171A, R183W
modifications: R74Y L171A R183W mutant of SriC12
In series [5], B5 showed a P450 concentration of 14.1 µM.

B6: Mutant 22 R63W R74Y L171A: R63W R74Y L171A mutant of codon optimised cytochrome SriC12, SEQ ID NO: 257 (protein)
chain: B1 chain with L171A
modifications: R63W R74Y L171A mutant of SriC12
In series [5], B6 returned a P450 concentration of 19.9 µM.
